Measured values from PubChem BioAssay (NCI).
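Briefly, cells in 96-well plates were exposed to five compound concentrations for 48 h, and endpoints were estimated by linear interpolation. TGI denotes the concentration required for complete inhibition of growth.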

Assays:
Experiment in all cases: NCI-60 cell line screen, 48 h
786-0 renal = system: 786-0 renal
A498 renal = system: A498 renal
A549 NSCLC = system: A549 NSCLC
ACHN renal = system: ACHN renal
CAKI-1 renal = system: CAKI-1 renal
CCRF-CEM leukemia = system: CCRF-CEM leukemia
COLO 205 colon = system: COLO 205 colon
DLD-1 colon = system: DLD-1 colon
DMS 114 small cell lung = system: DMS 114 small cell lung
DMS 273 small cell lung = system: DMS 273 small cell lung
EKVX NSCLC = system: EKVX NSCLC
HCC-2998 colon = system: HCC-2998 colon
HCT-116 colon = system: HCT-116 colon
HCT-15 colon = system: HCT-15 colon
HL-60(TB) leukemia = system: HL-60(TB) leukemia
HOP-62 NSCLC = system: HOP-62 NSCLC
HOP-92 NSCLC = system: HOP-92 NSCLC
HT29 colon = system: HT29 colon
IGROV1 ovarian = system: IGROV1 ovarian
K-562 leukemia = system: K-562 leukemia
KM12 colon = system: KM12 colon
KM20L2 colon = system: KM20L2 colon
LOX IMVI melanoma = system: LOX IMVI melanoma
LXFL 529 NSCLC = system: LXFL 529 NSCLC
M14 melanoma = system: M14 melanoma
M19-MEL melanoma = system: M19-MEL melanoma
MALME-3M melanoma = system: MALME-3M melanoma
MOLT-4 leukemia = system: MOLT-4 leukemia
NCI-H226 lung = system: NCI-H226 lung
NCI-H23 lung = system: NCI-H23 lung
NCI-H460 lung = system: NCI-H460 lung
NCI-H522 lung = system: NCI-H522 lung
OVCAR-3 ovarian = system: OVCAR-3 ovarian
OVCAR-4 ovarian = system: OVCAR-4 ovarian
OVCAR-5 ovarian = system: OVCAR-5 ovarian
OVCAR-8 ovarian = system: OVCAR-8 ovarian
RPMI-8226 leukemia = system: RPMI-8226 leukemia
RXF 393 renal = system: RXF 393 renal
RXF-631 renal = system: RXF-631 renal
SF-268 CNS = system: SF-268 CNS
SF-295 CNS = system: SF-295 CNS
SF-539 CNS = system: SF-539 CNS
SK-MEL-2 melanoma = system: SK-MEL-2 melanoma
SK-MEL-28 melanoma = system: SK-MEL-28 melanoma
SK-MEL-5 melanoma = system: SK-MEL-5 melanoma
SK-OV-3 ovarian = system: SK-OV-3 ovarian
SN12C renal = system: SN12C renal
SNB-19 CNS = system: SNB-19 CNS
SNB-75 CNS = system: SNB-75 CNS
SR leukemia = system: SR leukemia
SW-620 colon = system: SW-620 colon
TK-10 renal = system: TK-10 renal
U251 CNS = system: U251 CNS
UACC-257 melanoma = system: UACC-257 melanoma
UACC-62 melanoma = system: UACC-62 melanoma
UO-31 renal = system: UO-31 renal
XF 498 CNS = system: XF 498 CNS
HOP-18 NSCLC = system: HOP-18 NSCLC

Measured: TGI

O=C1OC(c2ccccc2)(c2ccccc2)c2ccc3ccc(F)cc3c21
not listed: HOP-18 NSCLC
> 100 µM: all other assays above

Cc1cc2c(c3nocc13)C(=O)c1ccccc1C2=O
not listed: A498 renal | HCT-116 colon | NCI-H226 lung | SR leukemia | XF 498 CNS
> 100 µM: all other assays above
